From patent US7033999B2, “Nitrosated and nitrosylated heme proteins” (Brigham and Women's Hospital, priority 1991, dated 2006)

What was measured:
[1] = Amidolytic activity against chromogenic substrate S2288; type: biochemical; settings: S2288 hydrolysis; for Km: 25° C., TBS
Protocol: (§1) The amidolytic activities of t-PA and its S-nitrosylated derivative were measured using the relatively specific chromogenic substrate, S2288. Substrate hydrolysis was measured spectrophotometrically at 405 nm with a Gilford Response UV/Vis Spectrophotometer (CIBA-Corning, Oberlin, Ohio). Activity was measured at 25° C. in TBS using substrate concentrations varying from 0.1–2.0 mM and t-PA at a concentration of 100 nM. Kinetic parameters were determined from initial rates by double reciprocal plot analysis. The assessment of inhibition of t-PA and S—NO-t-PA enzymatic activity by PAI-1 was made at an enzyme concentration of 10 nM and a molar ratio of t-PA to active PAI-1 of 1.0. The degree of inhibition was determined relative to the initial rates in the absence of the inhibitor.

[2] = molecular target: T1, PAI-1 (Homo sapiens, UniProt P05121); assay: Inhibition of t-PA and S—NO-t-PA enzymatic activity by PAI-1 (S2288); type: biochemical; settings: direct chromogenic assay with S2288; n=3
T1 construct: gift of Dr. Douglas E. Vaughan
T1 sequence (P05121 24-402, species assumed): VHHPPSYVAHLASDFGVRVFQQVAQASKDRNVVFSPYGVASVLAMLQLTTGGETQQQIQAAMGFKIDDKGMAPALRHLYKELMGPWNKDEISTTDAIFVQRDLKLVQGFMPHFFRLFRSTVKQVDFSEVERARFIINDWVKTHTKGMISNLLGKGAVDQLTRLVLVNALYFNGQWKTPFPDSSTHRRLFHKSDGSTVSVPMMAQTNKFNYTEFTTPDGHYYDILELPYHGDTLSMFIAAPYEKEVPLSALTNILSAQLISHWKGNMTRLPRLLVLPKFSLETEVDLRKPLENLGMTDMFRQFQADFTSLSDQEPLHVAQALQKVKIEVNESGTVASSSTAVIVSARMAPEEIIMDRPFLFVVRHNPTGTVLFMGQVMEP
Protocol: as §1

[3] = test system: gel-filtered platelets; assay: Intracellular platelet cyclic GMP (radioimmunoassay); type: cell-based, human
Protocol: (§2) Venous blood, anticoagulated with 1-mM trisodium citrate, was obtained from volunteers who had not consumed acetylsalicylic acid for at least ten days. Platelet-rich plasma (PRP) was prepared by centrifugation at 150 g for ten minutes at 25° C. Platelet counts were determined with a Coulter counter (model ZM; Coulter Electronics, Hialeah, Fla.).
(§3) Platelets were gel-filtered on a 4× 10 cm column of Sepharose 2B in Tyrode's Hepes buffer as described previously (Hawiger et al., Nature 2831:195–198 (1980), herein incorporated by reference). Platelets were typically suspended at a concentration of 1.5×10^8/ml and were used within 30 minutes of preparation. Platelet aggregation was monitored using a standard nephelometric technique (Born, et al., J. Physiol. 168:178–195 (1963), herein incorporated by reference), in which 0.3-ml aliquots of gel-filtered platelets were incubated at 37° C. and stirred at 1000 rpm in a PAP-4 aggregometer (Biodata, Hatboro, Pa.). Gel-filtered platelets were preincubated with t-PA or S—NO-t-PA for up to 45 minutes and aggregations induced with 5 μM ADP or 0.025 U/ml thrombin.
The antiplatelet actions of S-nitrosothiols are mediated by cyclic GMP. Measurements of cGMP were performed by radioimmunoassay. Gel-filtered platelets were pre-incubated for 180 seconds with S—NO-t-PA (9 μM), and related controls. […]

[4] = test system: endothelium-denuded rabbit aortic strips; assay: Vessel relaxation bioassay; type: cell-based; settings: for % Relaxation: 150 nM, contraction with 1 μM epinephrine, mean ±S.D., n=4
Protocol: New Zealand White female rabbits weighing 3–4 kg were anesthetized with 30 mg/kg IV sodium pentobarbital. Descending thoracic aortae were isolated and placed immediately in a cold physiologic salt solution (Kreb's) (mM): NaCl, 118; CKl, 4.7; CaCl2, 2.5; MgSO4, 1.2; KH2PO4, 1.2; NaHCO3, 12.5; and D-glucose, 11.0. The vessels were cleaned of adherent connective tissue, and the endothelium removed by gentle rubbing with a cotton tipped applicator inserted into the lumen, after which the vessel was cut into 5 mm rings. The rings were mounted on stirrups and connected to transducers (model FT03C Grass Instruments, Quincy, Mass.) by which changes in isometric tension were recorded.
Samples were added to a standard bioassay in which vessel rings were suspended in glass chambers containing seven mil of oxygenated Kreb's buffer, in a standard bioassay (Cook et al., Am. J. Physiol. 28:H804 (1989), herein incorporated by reference). Sustained contractions, to 2 gm tension, were induced with 1 μM epinephrine, after which the effects of t-PA and S—NO-t-PA were tested. In certain experiments the guanylate cyclase inhibitor, methylene blue, was preincubated with vessel rings for 15 minutes prior to initiation of contractions.
The vasodilatory actions of S-nitroso-BSA were examined in a standard bioassay containing endothelium-denuded rabbit aortic strips in Kreb's buffer, pH 7.5, at 37°, as described in Example 6.
In vessel experiments, relaxations to S—NO-BSA are expressed as-percent of tone induced by 1.0 μM norepinephrine.

[5] = test system: gel-filtered platelets; assay: Platelet aggregation (nephelometric aggregometry); type: cell-based, human; settings: 5 μM ADP
Protocol: as §2, §3
Aggregations were quantified by measuring the maximal rate or extent of light transmittance and expressed as a normalized value relative to control aggregations.
The effect of S-nitroso-BSA on platelet aggregation was studied, using a gel-filtered platelet preparation, as previously described (Hawiger et al., Nature 2831:195 (1980)) and suspended at 150,000 platelets/ul in HEPES buffer, pH 7.35. S—NO-BSA was incubated with platelets for ten minutes at 37° C. in a PAP-4 aggregometer (BioData, Hatboro, Pa.), after which aggregations were induced with 5 μM ADP. Aggregations were quantified by measuring the extent of change of light transmittance and expressed as a normalized value relative to control aggregations.

| inhibition of hydrolytic activity by PAI-1 [2] | relaxations in presence of guanylate cyclase inhibitor methylene blue ([4]; methylene blue preincubated 15 minutes) | Substance | kcat [1] [s⁻¹] | Km [1] [µM] | increase in intracellular cyclic GMP above basal levels ([3]; 9 μM, 180 seconds, basal in the presence of t-PA) [%] | elevation in platelet cGMP after preincubation with methylene blue ([3]; methylene blue 10 μM for ten minutes) | % Relaxation [4] [%] | effect on platelet aggregation, synthesized with authentic EDRF ([5]; 333 nM, preincubated ten minutes) | inhibition in rate and extent of aggregation ([5]; 1.4 μM, mean ±S.D., n=4) [%] |
| --- | --- | --- | --- | --- | --- | --- | --- | --- | --- |
| equally effective | attenuated | S—NO-t-PA: derived from the nitrosylation of tissue-type plasminogen activator (t-PA) | 0.52 | 295 | 85 | entirely prevented | 20 ± 7 | inhibition of platelet aggregation | 50±16 |
| equally effective | – | t-PA: tissue-type plasminogen activator, provided by Genentech | 0.52 | 280 | – | – | 2.5 ± 4 | – | – |
